Results reported in patent publication US20260306640A1, “TECHNOLOGIES TARGETING CELL STATES” (Auron Therapeutics, Inc., priority 2023, published 2026).
pEC50: −log10 of the molar value. Read-outs that look alike come from different tables or passages of the source.

How the values were obtained:
[1] = target: KAT2B (Homo sapiens, UniProt Q92831); test: KAT2B degradation, Western Blot (Jess), NCI-H1048 cells; assay type: cell-based; set-up: degrader, Western blot (Jess)
How it was run: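 DC50 came from protein loss relative to DMSO, measured by Jess capillary immunoblot of RIPA lysates with chemiluminescence read-out. Before lysis, NCI-H1048 cells in 5% FBS HITES medium were exposed to compound for 24 h at 37° C.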

[2] = test system: microglial GSEA; test: Microglial GSEA in NEPC primary patient organoid; assay type: cell-based; settings: both epithelial and neural components; FIG. 3 (F)
Method: (§1) FIG. 3. Provided compounds can provide various activities. (A): Provided technologies can reduce KAT2A and KAT2B levels and histone acetylation levels. […] Cell viability (Cell Titer Glo) data relative to DMSO control after 7 days of treatment with compound 22 are presented as examples to confirm inhibition. GI50=5 nM. (C): Provided technologies can modulate cell states and induce differentiation. […] (D): Provided technologies can reduce KAT2A and KAT2B levels and histone acetylation levels including in neuroendocrine prostate cancer primary patient organoid. […] Concentrations are nM. […] Cell viability data relative to DMSO control after 21 days of treatment with compound 22 are presented as examples to confirm inhibition. GI50=3 nM. (F): Provided technologies can modulate cell states and induce differentiation.

[3] = test system: LASCPC-01 cells; test: Inhibition of growth in vivo, neuroendocrine prostate cancer (LASCPC-01) cells; settings: FIG. 3 (see also Example B3)
[4] = target: T1, KAT2A (Homo sapiens, UniProt Q92830); test: Western blot of KAT2A level in NEPC primary patient organoid, 72 hours; assay type: cell-based; set-up: degrader, Western blot; settings: FIG. 3 (D)
T1 sequence (Q92830 whole entry): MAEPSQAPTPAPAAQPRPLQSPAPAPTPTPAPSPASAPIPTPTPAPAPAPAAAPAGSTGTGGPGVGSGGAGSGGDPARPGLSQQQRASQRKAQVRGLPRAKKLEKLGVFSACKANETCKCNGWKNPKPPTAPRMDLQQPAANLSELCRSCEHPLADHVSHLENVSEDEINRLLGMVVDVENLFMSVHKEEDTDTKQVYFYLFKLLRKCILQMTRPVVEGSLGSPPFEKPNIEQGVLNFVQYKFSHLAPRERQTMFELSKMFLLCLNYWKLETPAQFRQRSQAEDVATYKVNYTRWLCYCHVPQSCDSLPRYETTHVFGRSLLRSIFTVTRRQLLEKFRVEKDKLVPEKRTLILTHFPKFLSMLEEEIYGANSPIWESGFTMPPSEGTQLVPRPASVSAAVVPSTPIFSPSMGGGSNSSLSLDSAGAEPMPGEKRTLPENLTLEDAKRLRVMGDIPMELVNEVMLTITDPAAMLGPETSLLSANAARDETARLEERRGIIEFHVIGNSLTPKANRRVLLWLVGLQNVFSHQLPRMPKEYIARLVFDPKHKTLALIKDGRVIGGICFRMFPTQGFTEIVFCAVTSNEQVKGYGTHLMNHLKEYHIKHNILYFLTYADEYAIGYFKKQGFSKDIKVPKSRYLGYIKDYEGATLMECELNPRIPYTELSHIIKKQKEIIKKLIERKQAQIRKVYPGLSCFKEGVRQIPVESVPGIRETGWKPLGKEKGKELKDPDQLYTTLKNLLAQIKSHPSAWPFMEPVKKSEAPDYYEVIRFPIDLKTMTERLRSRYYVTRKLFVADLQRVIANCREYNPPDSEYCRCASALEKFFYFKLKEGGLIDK
Method: as §1

[5] = test system: CD86; test: CD86 by flow cytometry (monocytic differentiation), MOLM-13 cells, 48 hours; assay type: cell-based; settings: FIG. 2 (C)
Method: FIG. 2. Provided compounds can provide various activities. (A): Provided technologies can reduce KAT2A and KAT2B levels and histone acetylation levels. […] Cell count data after 8 days of treatment with compound 22 relative to DMSO control are presented as examples to confirm inhibition. […] (C): Provided technologies can modulate cell states and induce differentiation. […] EC50=0.3 nM.

[6] = target: T1, KAT2A; test: Western blot of KAT2A in NCI-H1048 tumors, 168 hours post last dose; assay type: in vivo; set-up: degrader, Western blot; settings: FIG. 1 (F)
Method: (§2) FIG. 1. Provided compounds can provide various activities including inhibiting tumor growth in vivo. (A): Provided compounds can inhibit tumor growth in vivo. Nude Balb/c mice were inoculated with NCI-H1048 cells in Matrigel. Tumors were allowed to grow up to about 200 mm^3 and mice were then randomized into two groups. Mice were dosed intraperitoneally (i.p.) once per week with vehicle or 30 mg/kg compound 22. Tumor size was measured every three to four days and mice were sacrificed once vehicle tumors reached 2000 mm^3. Error bar is SEM. Dosing started at day 17 post tumor inoculation. (B): Provided technologies can reduce KAT2A and KAT2B levels and histone acetylation levels. […] Vehicle is DMSO. […] Cell count data relative to DMSO control after 8 days of treatment with compound 22 are presented as examples to confirm inhibition. GI50=6 nM. (D): Provided technologies can inhibit tumor growth in vivo. Nude balb/c mice inoculated with H1048 tumors were dosed intraperitoneally once per week (qw i.p.) with vehicle (HbCD) or compound 22. Average tumor volumes+/−SEM from 6 mice are represented. […] See also (A). […] Certain body weights relative to starting weight are presented as examples to confirm tolerability and safety. (F): Provided technologies can reduce KAT2A and KAT2B levels and histone acetylation levels in tumor in vivo. […]

[7] = test system: NEPC primary patient organoid; test: Cell viability of NEPC primary patient organoid, 21 days; assay type: cell-based; settings: Homo sapiens, 504 h, cell viability relative to DMSO control after 21 days, FIG. 3 (E)
Method: as §1

[8] = test system: histone acetylation; test: Western blot of histone acetylation in NEPC primary patient organoid, 72 hours; assay type: cell-based; settings: FIG. 3 (D)
Method: as §1

[9] = test system: histone acetylation; test: Western blot of histone acetylation in NCI-H1048 tumors, 168 hours post last dose; assay type: in vivo; settings: FIG. 1 (F)
Method: as §2

KAT2B, sequence (Q92831 whole entry): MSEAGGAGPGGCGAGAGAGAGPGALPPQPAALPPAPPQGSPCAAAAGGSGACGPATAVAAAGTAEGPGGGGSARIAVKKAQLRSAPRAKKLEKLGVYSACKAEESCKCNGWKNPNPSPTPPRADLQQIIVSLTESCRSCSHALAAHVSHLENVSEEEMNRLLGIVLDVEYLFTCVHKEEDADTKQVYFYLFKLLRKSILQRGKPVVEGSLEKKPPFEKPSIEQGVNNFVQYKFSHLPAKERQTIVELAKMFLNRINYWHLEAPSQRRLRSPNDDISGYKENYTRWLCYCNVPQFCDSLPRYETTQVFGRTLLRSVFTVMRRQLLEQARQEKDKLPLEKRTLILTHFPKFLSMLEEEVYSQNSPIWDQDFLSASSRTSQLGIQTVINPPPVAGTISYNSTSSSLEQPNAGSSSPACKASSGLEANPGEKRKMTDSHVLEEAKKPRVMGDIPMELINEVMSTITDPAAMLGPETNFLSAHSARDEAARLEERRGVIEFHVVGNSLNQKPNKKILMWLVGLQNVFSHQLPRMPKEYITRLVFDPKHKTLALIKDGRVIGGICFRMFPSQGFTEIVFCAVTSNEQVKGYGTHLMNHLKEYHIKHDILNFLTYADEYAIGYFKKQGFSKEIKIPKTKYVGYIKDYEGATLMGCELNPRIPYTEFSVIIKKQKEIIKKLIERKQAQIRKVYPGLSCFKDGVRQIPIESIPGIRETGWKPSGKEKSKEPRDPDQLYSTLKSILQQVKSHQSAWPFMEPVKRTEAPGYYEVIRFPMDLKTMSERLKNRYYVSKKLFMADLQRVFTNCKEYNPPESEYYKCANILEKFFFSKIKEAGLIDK

EC90 ([1]; 24 h, NCI-H1048, KAT2B, read-out: DC90 (the source's name)): 1.44 nM
DC50 ([1]; NCI-H1048, KAT2B, read-out: DC50): 0.04 nM
KAT2B levels ([1]; NCI-H1048 cells, FIG. 1): potently reduce KAT2A and KAT2B levels
DC50 ([1]; NCI-H1048 cells, KAT2B, 24 h, Western Blot, vs DMSO, read-out: KAT2B NCI-H1048 DC50): < 1 nM
reduction of KAT2A level [4]: confirmed such reductions
pEC50 ([5]; Homo sapiens, flow cytometry at 48 hours): 9.52
reduction of KAT2A in tumor [6]: significant reduction
Compound: CN1C[C@H](Nc2cnn(C)c(=O)c2Br)C[C@H](c2ccc(C(=O)N3CCC(CN4CCN(c5ccc6c(c5)CN(C5CCC(=O)NC5=O)C6=O)CC4)CC3)cc2)C1 (stereo partly drawn) [Compound 22, 3-(5-(4-((1-(4-((3R,5R)-5-((5-bromo-1-methyl-6-oxo-1,6-dihydropyridazin-4-yl)amino)-1-methylpiperidin-3-yl)benzoyl)piperidin-4-yl)methyl)piperazin-1-yl)-1-oxoisoindolin-2-yl)piperidine-2,6-dione]
microglial GSEA [2]: significant upregulation
cell growth in vivo [3]: inhibit cell growth in vitro and in vivo
monocytic differentiation ([5]; CD86 flow cytometry at 48 hours): monocytic differentiation was observed
GI50 [7]: 3 nM
reduction of histone acetylation level [8]: confirmed such reductions
reduction of histone acetylation in tumor [9]: significant reduction
